These results are taken from patent publication US20170355959A1, “METHODS FOR MOBILISING POPULATIONS OF STEM CELLS” (Imperial Innovations Limited, priority 2014, published 2017).

Assay [1] relates to HSPCs. The assay can be described thus: Mobilization of HSPCs into peripheral blood (CFU-HPC assay). It counts as in vivo, mice. Particulars: for effect on HSPC mobilization induced by 4 day beta 3 adrenergic agonist and CXCR4 antagonist: inhibitor or antagonist given 60 minutes prior to BRL 37344, once daily for 4 days; for level of HSPC mobilization: 3 day pre-treatment with one agonist alone, beta 3 agonist and CXCR4 antagonist on day 4; for priming of HSPCs for mobilization: 4 day pre-treatment, CB1 and CB2 agonists in combination, even with FAAH inhibitor. As for the experimental part:
(§1) Mice were administered the β-adrenergic agonists isoproterenol (10 mg/kg i.p.), clenbuterol (5 mg/kg i.p.) and BRL 37344 (10 mg/kg i.p.), the cannabinoid receptor agonists ACEA (10 mg/kg i.p.) and GP1a (5 mg/kg i.p.), or vehicle either on 4 consecutive days or 2 hours prior to the cull. 1 hour after the last injection, mice were administered the CXCR4 antagonist AMD3100 (5 mg/kg i.p.) or vehicle. 1 hour later their blood was collected via cardiac puncture for enumeration of circulating CFU-HPCs and CFU-Fs. Mice were administered murine G-CSF (100 μg/kg i.p.) or vehicle on 4 consecutive days. On day 5, blood was collected via cardiac puncture for enumeration of circulating HSPCs.
(§2) Harvested peripheral blood or perfusate was red blood cell-lysed and 1×10^5 cells were added to tissue culture-treated petri dishes containing 1 ml of Methocult™ (M3434; StemCell Technologies) to select for CFU-HPCs. Cultures were incubated at 37° C. and quantified on day 12. Similarly, 1×10^6 bone marrow cells harvested by bone marrow flush of the hind limb femur were plated for CFU-HPCs.

The test system of assay [2] is CFU-Fs (MSPCs). The assay can be described thus: Mobilization of MSPCs into peripheral blood (CFU-F assay). The note with it: for priming of MSCs for mobilization: 4 day pre-treatment, CB1 and CB2 agonists in combination, even with FAAH inhibitor. It counts as in vivo, mice.
The subject of assay [3] is free fatty acids. Kind of assay: Free fatty acid assay in blood plasma. Particulars: pre-treatment 60 minutes prior to the b3 adrenergic agonist, 4 days. It counts as in vivo, mice. As for the experimental part: as §1
Free fatty acid content in blood plasma was quantified using a serum/plasma fatty acid detection Kit (Zen Bio) and the assay was performed according to the manufacturers' instructions. Data are expressed as μM concentration of free fatty acids.

For assay [4], the system named is FFAs. Particulars: infusion directly into the vasculature of the canine femur; cited from earlier work.
For assay [5], the system named is total white blood cells. Particulars: CXCR4 antagonist alone. As for the experimental part:
as §1

Assay [6] deals with HSPCs. The note with it: humans; cited from earlier work.
The test system of assay [7] is CFU-Fs (MSCs). The assay can be described thus: In situ perfusion of mouse hind limb, CFU-Fs in perfusate. The class given is in vivo, mice. The method, then: (§3) Mice were administered BRL 37344 (10 mg/kg i.p.) or vehicle on 4 consecutive days. 1 hour after the last injection, the mice were anaesthetized. The femoral vein and artery were exposed and cannulated in situ immediately after the hind limb was isolated by occlusion of the surrounding arteries as previously described (Pitchford et al, 2009; Pitchford et al, 2010). Perfusion buffer was infused via the arterial cannula and removed from the venous cannula using a Minipuls Peristaltic Pump (Anachem). The hind limb was initially infused with AMD3100 (0.1 mM) or vehicle for 10 minutes using an infusion/withdrawal pump (Harvard Instruments) and was further perfused for 50 minutes with perfusion buffer (Pitchford et al, 2010). The perfusate was collected over 60 minutes and then centrifuged and resuspended in DMEM (Gibco) +20% fetal bovine serum for enumeration of CFU-HPCs and CFU-Fs.
Harvested peripheral blood or perfusate was red blood cell-lysed and 1×10^6 cells were added to tissue culture-treated 6-well plates containing 3 ml of Mesencult™ (05502; StemCell Technologies) to select for CFU-Fs. Similarly, 1×10^6 bone marrow cells harvested by bone marrow flush of the hind limb femur were plated for CFU-Fs. Cultures were incubated at 37° C. and media was changed on day 7. Bone marrow-derived CFU-Fs were enumerated on day 13 and blood- and perfusate-derived CFU-Fs were enumerated on day 21. Blood derived-CFU-Fs were further expanded and assessed for mesenchymal lineage markers by flow cytometry and following CD45 depletion (flow cytometry sorting of CD45 negative for mesenchymal trilineage differentiation (Supplemental Experimental Procedures).

Assay [8] has as its system HPCs. Kind of assay: In situ perfusion of mouse hind limb, CFU-HPCs in perfusate. The class given is in vivo, mice. As for the experimental part:
as §3, §2

Assay [9] has as its system MSCs. The note with it: G-CSF and/or the CXCR4 antagonist; cited from earlier work.
Assay [10] deals with HSPCs. Particulars: mice; cited from earlier work.
Assay [11] deals with CXCL12. Particulars: in vivo; cited from earlier work.
[12] abbreviates: 3 days CB1 and CB2 agonists in combination, beta 3 agonist on the fourth day prior to CXCR4 antagonist.
Where [13] appears, read: acute treatment (2 h), alone or in combination with acute CXCR4 antagonist.
The mark [14] stands for this setting: pre-treated once daily for 4 days, then AMD3100, blood 1 hour later.
[15] abbreviates: vehicle pre-treated mice, hind limb infused with CXCR4 antagonist for 10 min.
Setting [16] is: AMD3100 alone, 5 mg/kg i.p., blood 1 hour later.
Where [17] appears, read: four day pretreatment, b3 adrenergic agonist in combination with FAAH inhibitor.

Read-outs that look alike come from different tables or passages of the source.

As for `Cc1c(C(=O)NN2CCCCC2)nn(-c2ccc(Cl)cc2Cl)c1-c1ccc(I)cc1` [AM251], the “effect on HSPC mobilization induced by 4 day beta 3 adrenergic agonist and CXCR4 antagonist” value (“effect on HSPC mobilization induced” for short) in [1] is recorded as “significantly suppressed”.

As for `CC(C)(C)NCC(O)c1cc(Cl)c(N)c(Cl)c1` (centres unmarked) [Clenbuterol], the HSPC mobilization result in [1] (once daily for 4 days, alone or in combination with the CXCR4 antagonist) is reported as “did not stimulate HSPC or MSC mobilization”. Further, the MSC mobilization result in [2] (mouse, in vivo) is given as “did not stimulate HSPC or MSC mobilization”.

On to `COc1ccc(C(=O)c2c(C)n(CCN3CCOCC3)c3cc(I)ccc23)cc1` [AM630], for which, in assay [1], the “effect on HSPC mobilization induced” value was “significantly suppressed”. Also, the “effect on CFU-F mobilization induced by 4 day beta 3 adrenergic agonist and CXCR4 antagonist” value (from here on “effect on CFU-F mobilization induced”) in assay [2] (mouse, in vivo) is on record as “significantly suppressed”.

Regarding `CCCCCCCCCCC[C@@H](C[C@@H]1OC(=O)[C@H]1CCCCCC)OC(=O)[C@H](CC(C)C)NC=O` [Orlistat], the “effect on HSPC mobilization induced” value in assay [1] is recorded as “completely abrogated”. In assay [2] (inhibitor or antagonist given 60 minutes prior to BRL 37344, once daily for 4 days), the “effect on CFU-F mobilization induced” value is reported as “completely abrogated”. Also, the “effect on the b3 adrenergic agonist induced increase of FFA levels in plasma” value in assay [3] was “attenuated”.

With `CCCCC/C=C\C/C=C\C/C=C\C/C=C\CCCC(=O)NCCCl` [ACEA, Arachidonyl-2-chloroethylamide], in assay [1], the “level of HSPC mobilization” value was “significantly less than that achieved using these agonists in combination” and the “priming of HSPCs for mobilization” value is recorded as “not sufficient to prime MSCs or HSPCs for mobilization”. Further, the HSPC mobilization result in assay [1] (setting [12]) is given as “stem cells were mobilized”. Also, in assay [2], the “priming of MSCs for mobilization” value is on record as “not sufficient to prime MSCs or HSPCs for mobilization”. In [2] (mouse, in vivo), the CFU-F mobilization entry is “stem cells were mobilized” and the “level of CFU-F mobilization” value is “significantly less than that achieved using these agonists in combination”.

For the molecule `CC(C)NCC(O)c1ccc(O)c(O)c1` (centres unmarked) [isoproterenol], in [4], the “release of FFAs into the femoral vein” value was “release of FFAs into the femoral vein”. Moreover, in assay [1] (4 day pre-treatment alone), the “circulating numbers of HSPCs” value is reported as “did not change circulating numbers of HSPCs or CFU-Fs”. Further, in [1] (setting [13]), the “mobilization of HSPCs” value is on record as “did not enhance the mobilization of HSPCs above AMD3100 alone”. For the same molecule, the “circulating HSPC numbers” value in assay [1] (setting [14]) is listed as “significantly elevated over treatment with the CXCR4 antagonist alone”. In assay [2] (4 day pre-treatment alone), the “circulating numbers of CFU-Fs” value was “did not change circulating numbers of HSPCs or CFU-Fs”. In addition, in assay [2] (setting [13]), the “CFU-Fs in the blood” value was “did not result in detectable numbers of CFU-Fs in the blood”. Further, the “circulating CFU-Fs” value in assay [2] (setting [14]) is given as “CFU-Fs were mobilized”.

As to `COc1ccc2cc([C@H](C)C(=O)O)ccc2c1` [Naproxen], the “effect on HSPC mobilization induced” value in assay [1] is “significant increase in the mobilization of both HSPCs or CFU-Fs”.

As to `c1cc(CN2CCCNCCNCCCNCC2)ccc1CN1CCCNCCNCCCNCC1` [AMD3100], in [5], the “mobilization of total white blood cells” value is reported as “significantly increased”. Besides, the “circulating numbers of HSPCs” value in assay [6] and in assay [10] was “stimulates a rapid rise in circulating numbers of HSPCs” each time. Also, the “MSCs mobilized from the bone marrow” value in assay [7] (setting [15]) is reported as “HPCs but not MSCs were mobilized from the bone marrow”. Besides, in assay [8] (setting [15]), the “HPCs mobilized from the bone marrow” value is recorded as “HPCs but not MSCs were mobilized from the bone marrow”. For the same molecule, the “mobilization of HSPCs into the blood” value in [1] (setting [16]) is given as “stimulated mobilization of HSPCs into the blood”. For the same molecule, the CFU-Fs in blood result in assay [2] (setting [16]) was “no colony forming units-fibroblasts (CFU-Fs; a measure of MSCs) were detectable”. For the same molecule, in assay [9], the “mobilisation of MSCs from the bone marrow into the blood” value is “not effective”.

Consider `Cc1ccc2c(c1)Cc1c(C(=O)NN3CCCCC3)nn(-c3ccc(Cl)cc3Cl)c1-2` [GP1a, N-(Piperidin-1-yl)-1-(2,4-dichlorophenyl)-1,4-dihydro-6-methylindeno[1,2-c]pyrazole-3-carboxamide], for which, in [1], the “level of HSPC mobilization” value is “significantly less than that achieved using these agonists in combination” and the “priming of HSPCs for mobilization” value is reported as “not sufficient to prime MSCs or HSPCs for mobilization”. Further, the HSPC mobilization result in [1] (setting [12]) is “stem cells were mobilized”. Besides, the “priming of MSCs for mobilization” value in assay [2] is “not sufficient to prime MSCs or HSPCs for mobilization”. In addition, in assay [2] (mouse, in vivo), the CFU-F mobilization entry is on record as “stem cells were mobilized” and the “level of CFU-F mobilization” value was “significantly less than that achieved using these agonists in combination”.

For the molecule `NC(=O)c1cccc(-c2cccc(OC(=O)NC3CCCCC3)c2)c1` [URB597], the “MSC egress from the bone marrow in response to infusion of the CXCR4 antagonist” value in assay [7] (setting [17]) was “significantly enhanced both HPC and MSC egress from the bone marrow”. Besides, the “HPC egress from the bone marrow in response to infusion of the CXCR4 antagonist” value in [8] (setting [17]) was “significantly enhanced both HPC and MSC egress from the bone marrow”. In addition, the “effect on HSPC mobilization induced” value in [1] is “significantly enhanced”. Besides, in assay [2] (mouse, in vivo), the “effect on CFU-F mobilization induced” value is listed as “significantly enhanced”.

B1: G-CSF: cytokine, granulocyte colony stimulating factor; murine G-CSF (PeproTech) (protein, UniProt P09920 31-208, looked up)
Granulocyte …: VPLVTVSALPPSLPLPRSFLLKSLEQVRKIQASGSVLLEQLCATYKLCHPEELVLLGHSLGIPKASLSGCSSQALQQTQCLSQLHSGLCLYQGLLQALSGISPALAPTLDLLQLDVANFATTIWQQMENLGVAPTVQPTQSAMPAFTSAFQRRAGGVLAISYLQGFLETARLALHHLA
Take B1: in assay [11], the “levels of CXCL12 in the bone marrow” value is listed as “reducing levels of CXCL12 in the bone marrow”. For the same molecule, the “G-CSF-induced mobilization of haematopoietic progenitor cells” value in assay [1] (in the presence or absence of AM251 or AM630, 4 consecutive days) is listed as “Independent of Cannabinoid Receptor Signalling”. Besides, in [2] (mouse, in vivo, ip), the “effect on β3-AR agonist/AMD3100 mobilisation of MSPCs” value is recorded as “impairs”. Further, the “mobilisation of MSCs from the bone marrow into the blood” value in assay [9] is listed as “not effective”.
